Where a chain is given by its changes, count along the chain named. Like-named read-outs stand apart in the source and are kept apart here.
Assays:
[1] = target: T1, purified wild type MGL (wt-MGLL 6H-11-313) (Homo sapiens, UniProt Q99685)
T1 sequence (Q99685 1-303): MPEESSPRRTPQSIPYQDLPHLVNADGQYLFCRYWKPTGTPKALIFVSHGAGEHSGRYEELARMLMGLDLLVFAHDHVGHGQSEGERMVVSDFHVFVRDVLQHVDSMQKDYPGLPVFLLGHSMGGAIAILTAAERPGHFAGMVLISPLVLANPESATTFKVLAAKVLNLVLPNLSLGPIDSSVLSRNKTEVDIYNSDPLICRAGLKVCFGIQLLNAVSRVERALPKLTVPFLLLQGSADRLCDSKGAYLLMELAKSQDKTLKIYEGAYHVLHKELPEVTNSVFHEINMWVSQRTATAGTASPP

[2] = target: T2, mutant MGL (Homo sapiens, UniProt Q99685, L169S/L176S); test: MGL ThermoFluor assay - mutant; assay type: binding
T2 sequence (Q99685 1-303 L169S/L176S): T1 sequence (Q99685 1-303) with L169S, L176S

[3] = ThermoFluor thermal stability binding assay, read-out: MGL mutant ThermoFluor Kd
[4] = compound concentration measured by qNMR, read-out: MGL mutant ThermoFluor qKd (using qNMR conc.)
[5] = ThermoFluor, compound concentration measured by qNMR, read-out: MGL mutant ThermoFluor qKd (using qNMR conc.)
[6] = ThermoFluor, compound concentration measured by qNMR, read-out: MGL mutant ThermoFluor qKd (μM) (using qNMR conc.)
[7] = ThermoFluor concentration-response, read-out: MGL mutant ThermoFluor Kd

## O=C(c1cscn1)N1CCN(C2CN(C(=O)c3cc(-c4ccccc4)n(-c4ccccc4)n3)C2)CC1 [Cpd 1261]
[1]
  IC50: 0.932 µM
[2]; [3]
  Kd: 0.831 µM

## O=C(c1ccc(Oc2ccc(Br)cn2)cc1)N1CC(N2CCN(C(=O)C(F)(F)F)CC2)C1 [Cpd 872]
[1]
  IC50: 14 µM
[2]; [4]
  Kd: 10 µM

## Cc1nc2cc(C(=O)N3CC(N4CCN(C(=O)c5nccs5)CC4)C3)ccc2s1 [Cpd 783]
[1]
  IC50: 1.09 µM
[2]; [5]
  Kd: 0.732 µM

## Cc1nc2cc(C(=O)N3CC(N4CCN(C(=O)c5nccs5)CC4)C3)ccc2n1CC(F)(F)F [Cpd 789]
[1]
  IC50: 1.37 µM
[2]; [4]
  Kd: 0.043 µM

## O=C(c1nccs1)N1CCN(C2CN(C(=O)c3cn(-c4ccc(F)cc4)c4ccccc34)C2)CC1 [Cpd 1224]
[1]
  IC50: 0.27 µM
[2]; [6]
  Kd: 0.189 µM

## Cc1nc2cc(C(=O)N3CC(N4CCN(C(=O)c5cscn5)CC4)C3)ccc2n1-c1ccc(C(F)(F)F)cc1 [Cpd 1289]
[1]
  IC50: 2.6 µM
[2]; [4]
  Kd: 0.13 µM

## O=C(c1cn2cc(Br)ccc2n1)N1CC(N2CCN(C(=O)c3nccs3)CC2)C1 [Cpd 873]
[1]
  IC50: 14.7 µM
[2]; [5]
  Kd: 9.2 µM

## O=C(c1ccc2nc(C(F)(F)F)cc(Cl)c2c1)N1CCN(C2CN(C(=O)c3nccs3)C2)CC1 [Cpd 842]
[1]
  IC50: 5.53 µM
[2]; [7]
  Kd: 0.986 µM

## O=C(c1ccccc1)N1CCN(C2CN(C(=O)c3ccc(Oc4ccc(Cl)cn4)cc3)C2)CC1 [Cpd 520]
[1]
  IC50: 2.03 µM
[2]; [7]
  Kd: 2 µM

## O=C(c1ccc2c(c1)[nH]c(=O)n2CC(F)(F)F)N1CC(N2CCN(C(=O)c3nccs3)CC2)C1 [Cpd 937]
[1]
  IC50: 0.25 µM
[2]; [7]
  Kd: 0.096 µM

## O=C(c1cnc(NCc2ccccc2)s1)N1CC(N2CCN(C(=O)c3nccs3)CC2)C1 [Cpd 795]
[1]
  IC50: 1.5 µM
[2]; [7]
  Kd: 1.1 µM

## O=C(c1ccc2nn(-c3cccc(OC(F)(F)F)c3)cc2c1)N1CC(N2CCN(C(=O)c3nccs3)CC2)C1 [Cpd 1376]
[1]
  IC50: < 0.005 µM
[2]; [6]
  Kd: 0.013 µM

## Cn1cc(-c2cccc(C(F)(F)F)c2)c2ccc(C(=O)N3CC(N4CCN(C(=O)c5ccccc5)CC4)C3)cc21 [Cpd 593]
[1]
  IC50: 0.311 µM
[2]; [7]
  Kd: 0.01 µM

## Cc1nc2cc(C(=O)N3CC(N4CCN(C(=O)c5nccs5)CC4)C3)ccc2n1CCC(F)(F)F [Cpd 777]
[1]
  IC50: 0.913 µM
[2]; [4]
  Kd: 0.048 µM

## Cc1nc2cc(Cl)ccc2cc1C(=O)N1CC(N2CCN(C(=O)c3nccs3)CC2)C1 [Cpd 826]
[1]
  IC50: 3.29 µM
[2]; [5]
  Kd: 0.663 µM

## Cc1cc(C(=O)N2CC(N3CCN(C(=O)c4nccs4)CC3)C2)sc1Br [Cpd 723]
[1]
  IC50: 0.181 µM
[2]; [6]
  Kd: 0.292 µM

## O=C(c1ccc(Cl)nc1)c1c[nH]c2cc(C(=O)N3CC(N4CCN(C(=O)c5nccs5)CC4)C3)ccc12 [Cpd 949]
[1]
  IC50: 0.163 µM
[2]; [7]
  Kd: 0.178 µM

## Cc1cc(C(=O)N2CC(N3CCN(C(=O)c4nccs4)CC3)C2)c(C)n1Cc1ccc(S(N)(=O)=O)cc1 [Cpd 1042]
[1]
  IC50: 5.27 µM
[2]; [5]
  Kd: 5 µM

## O=C(c1ccc(-n2nccc2-c2ccc(F)cc2)cc1)N1CC(N2CCN(C(=O)c3nccs3)CC2)C1 [Cpd 1412]
[1]
  IC50: 0.087 µM
[2]; [3]
  Kd: 0.241 µM

## O=C(c1nccs1)N1CCN(C2CN(C(=O)c3cccc4nc(-c5ccco5)[nH]c34)C2)CC1 [Cpd 1252]
[1]
  IC50: 0.706 µM
[2]; [3]
  Kd: 0.386 µM

## Cc1c(C(=O)N2CC(N3CCN(C(=O)c4nccs4)CC3)C2)nc2ccc(Br)cn12 [Cpd 868]
[1]
  IC50: 12.1 µM
[2]; [5]
  Kd: > 23.1 µM

## Cc1nc2cc(C(=O)N3CC(N4CCN(C(=O)c5nccs5)CC4)C3)ccc2n1-c1ccc(C(F)(F)F)cc1 [Cpd 1215]
[1]
  IC50: 0.216 µM
[2]; [4]
  Kd: 0.006 µM

## O=C(c1ccc(CNc2cccc(Cl)c2)cc1)N1CC(N2CCN(C(=O)C(F)(F)F)CC2)C1 [Cpd 964]
[1]
  IC50: 1.7 µM
[2]; [4]
  Kd: 3.2 µM

## O=C(c1ccc2c(c1)CCN2)N1CC(N2CCN(C(=O)c3nccs3)CC2)C1 [Cpd 829, 5-({3-[4-(1,3-Thiazol-2-ylcarbonyl)piperazin-1-yl]azetidin-1-yl}carbonyl)-2,3-dihydro-1H-indole]
[1]
  IC50: 3.91 µM
[2]; [3]
  Kd: 0.5 µM

## O=C(c1cscn1)N1CCN(C2CN(C(=O)c3cc4cc(Cl)ccc4o3)C2)CC1 [Cpd 1444]
[1]
  IC50: > 16.7 µM
[2]; [3]
  Kd: > 31 µM

## O=C1c2ccccc2-c2ccc(C(=O)N3CC(N4CCN(C(=O)c5nccs5)CC4)C3)cc21 [Cpd 698]
[1]
  IC50: 0.065 µM
[2]; [5]
  Kd: 0.085 µM

## O=C(c1sc2cc(C(F)(F)F)ccc2c1Cl)N1CC(N2CCN(C(=O)c3cscn3)C(C(F)(F)F)C2)C1 (stereo not shown) [Cpd 833]
[1]
  IC50: 4.56 µM
[2]; [6]
  Kd: 3.33 µM

## O=C(c1ccccc1)N1CCN(C2CN(C(=O)c3ccc4c(ccn4-c4ccncc4)c3)C2)CC1 [Cpd 603, 5-({3-[4-(Phenylcarbonyl)piperazin-1-yl]azetidin-1-yl}carbonyl)-1-pyridin-4-yl-1H-indole]
[1]
  IC50: 1.72 µM
[2]; [5]
  Kd: 0.448 µM

## O=C(c1cc2ccc(C(F)(F)F)cc2[nH]1)N1CC(N2CCN(C(=O)c3ccns3)CC2)C1 [Cpd 1445]
[1]
  IC50: > 16.7 µM
[2]; [3]
  Kd: > 31.2 µM

## O=C(c1ccccc1)N1CC(N2CCN(C(=O)c3cc4cc(C(F)(F)F)ccc4s3)C(c3ccccc3)C2)C1 (stereo not shown) [Cpd 517]
[1]
  IC50: 1.34 µM
[2]; [7]
  Kd: 0.05 µM

## O=C(c1ccccc1)N1CCN(C2CN(C(=O)c3cccc4[nH]c(-c5ccccc5Cl)nc34)C2)CC1 [Cpd 608]
[1]
  IC50: 4.17 µM
[2]; [3]
  Kd: 1.67 µM

## O=C(c1cscn1)N1CC(N2CCN(C(=O)c3cc4cc(C(F)(F)F)ccc4[nH]3)CC2)C1 [Cpd 772]
[1]
  IC50: 0.799 µM
[2]; [7]
  Kd: 0.185 µM

## O=C(c1ccc2c(ccn2Cc2cccnc2)c1)N1CC(N2CCN(C(=O)c3nccs3)CC2)C1 [Cpd 1048]
[1]
  IC50: 0.695 µM
[2]; [4]
  Kd: 0.146 µM

## O=C(c1cc2nc(C(F)(F)F)ccc2[nH]1)N1CC(N2CCN(C(=O)c3nccs3)CC2)C1 [Cpd 863]
[1]
  IC50: 10.2 µM
[2]; [5]
  Kd: 4.37 µM

## O=C(c1ccc2c(c1)ncn2CCC(F)(F)F)N1CC(N2CCN(C(=O)c3nccs3)CC2)C1 [Cpd 780]
[1]
  IC50: 0.978 µM
[2]; [4]
  Kd: 0.128 µM

## O=C(c1ccc(S(=O)(=O)c2cccc(C(F)(F)F)c2)cc1)N1CC(N2CCN(C(=O)c3cscn3)CC2)C1 [Cpd 738]
[1]
  IC50: 0.289 µM
[2]; [7]
  Kd: 0.291 µM

## O=C(c1ccc2c(cnn2-c2cccc(OC(F)(F)F)c2)c1)N1CC(N2CCN(C(=O)c3nccs3)CC2)C1 [Cpd 1374]
[1]
  IC50: < 0.005 µM
[2]; [6]
  Kd: 0.007 µM

## O=C(c1cscn1)N1CCN(C2CN(C(=O)c3cc4ccc(C(F)(F)F)nc4[nH]3)C2)CC1 [Cpd 865]
[1]
  IC50: 10.3 µM
[2]; [5]
  Kd: 2.5 µM

## O=C(c1ccc2c(c1)ncn2-c1ccc(C(F)(F)F)cc1)N1CC(N2CCN(C(=O)c3cscn3)CC2)C1 [Cpd 1231]
[1]
  IC50: 0.316 µM
[2]; [4]
  Kd: 0.131 µM

## Cc1nc2cc(C(=O)N3CC(N4CCN(C(=O)c5cscn5)CC4)C3)ccc2n1CC(F)(F)F [Cpd 858]
[1]
  IC50: 8.77 µM
[2]; [4]
  Kd: 0.561 µM

## O=C(c1ccc2[nH]c(C3CCCCC3)nc2c1)N1CCN(C2CN(C(=O)c3nccs3)C2)CC1 [Cpd 827]
[1]
  IC50: 3.31 µM
[2]; [7]
  Kd: 0.5 µM

## O=C(c1ccc2c(c1)[nH]c(=O)n2-c1ccc(F)c(F)c1)N1CC(N2CCN(C(=O)c3nccs3)CC2)C1 [Cpd 935]
[1]
  IC50: 0.1 µM
[2]; [7]
  Kd: 0.034 µM

## O=C(c1ccc(Oc2cccc(F)n2)cc1)N1CC(N2CCN(C(=O)c3cscn3)CC2)C1 [Cpd 784]
[1]
  IC50: 1.13 µM
[2]; [7]
  Kd: 2.15 µM

## O=C(c1ccc(Oc2cc(C(F)(F)F)ccn2)cc1)N1CC(N2CCN(C(=O)c3cscn3)CC2)C1 [Cpd 769]
[1]
  IC50: 0.725 µM
[2]; [7]
  Kd: 2 µM

## O=C(c1ccc(S(=O)(=O)N2CCCCC2)cc1)N1CC(N2CCN(C(=O)c3nccs3)CC2)C1 [Cpd 947]
[1]
  IC50: 1.06 µM
[2]; [5]
  Kd: 0.653 µM

## O=C(c1ccccc1)N1CCN(C2CN(C(=O)c3cc4cc(-c5ccccc5)ccc4o3)C2)CC1 [Cpd 605]
[1]
  IC50: 1.86 µM
[2]; [3]
  Kd: 1.89 µM

## Cc1cc(-n2ccc3cc(C(=O)N4CC(N5CCN(C(=O)c6nccs6)CC5)C4)ccc32)ccn1 [Cpd 1410, 1-(2-Methylpyridin-4-yl)-5-({3-[4-(1,3-thiazol-2-ylcarbonyl)piperazin-1-yl]azetidin-1-yl}carbonyl)-1H-indole]
[1]
  IC50: 0.089 µM
[2]; [5]
  Kd: 0.014 µM

## Cc1nc2cc(C(=O)N3CC(N4CCN(C(=O)c5cscn5)CC4)C3)ccc2n1C1CCCCC1 [Cpd 832]
[1]
  IC50: 4.24 µM
[2]; [3]
  Kd: 0.059 µM

## O=C(c1ccc(N2CCS(=O)(=O)CC2)cc1)N1CC(N2CCN(C(=O)c3nccs3)CC2)C1 [Cpd 843]
[1]
  IC50: 5.53 µM
[2]; [7]
  Kd: 2.13 µM

## O=C(c1cnc2ccn(-c3ccc(F)cc3)c2c1)N1CC(N2CCN(C(=O)c3nccs3)CC2)C1 [Cpd 1277]
[1]
  IC50: 1.83 µM
[2]; [6]
  Kd: 2.72 µM

## O=C(c1ccccc1)N1CCN(C2CN(C(=O)c3ccc(F)c(Cc4ccc(C(F)(F)F)cc4)c3)C2)CC1 [Cpd 563]
[1]
  IC50: 2.49 µM
[2]; [7]
  Kd: 2.11 µM

## COc1cccc2c(C)c(C(=O)N3CC(N4CCN(C(=O)c5ccccc5)CC4)C3)[nH]c12 [Cpd 526]
[1]
  IC50: 8.1 µM
[2]; [7]
  Kd: 4.98 µM

## O=C(c1cc2ccc(Br)cc2[nH]1)N1CC(N2CCN(C(=O)c3nccs3)CC2)C1 [Cpd 792]
[1]
  IC50: 1.46 µM
[2]; [5]
  Kd: 0.973 µM

From patent publication US8362000B2, “Azetidinyl diamides as monoacylglycerol lipase inhibitors” (Janssen Pharmaceutica NV, priority 2009, dated 2013)
